Laboratory results published in PMC3017236 (Clinical cancer research : an official journal of the …, 2010).
Entries after “also recorded” stand apart in the source; their conditions may differ. Where two headings read alike, the source gives them in different places.

Legend:
[1] = humans; cited from earlier work
[2] = biological target: T1, organic anion transporter-3 (OAT3) (Homo sapiens, UniProt Q8TCC7); assay: Uptake in HEK-293 cells transfected with OAT3 vs empty vector; settings: HEK-293/OAT3, 5 minutes incubation, 0.5 μg/mL
T1 sequence (Q8TCC7 1-542): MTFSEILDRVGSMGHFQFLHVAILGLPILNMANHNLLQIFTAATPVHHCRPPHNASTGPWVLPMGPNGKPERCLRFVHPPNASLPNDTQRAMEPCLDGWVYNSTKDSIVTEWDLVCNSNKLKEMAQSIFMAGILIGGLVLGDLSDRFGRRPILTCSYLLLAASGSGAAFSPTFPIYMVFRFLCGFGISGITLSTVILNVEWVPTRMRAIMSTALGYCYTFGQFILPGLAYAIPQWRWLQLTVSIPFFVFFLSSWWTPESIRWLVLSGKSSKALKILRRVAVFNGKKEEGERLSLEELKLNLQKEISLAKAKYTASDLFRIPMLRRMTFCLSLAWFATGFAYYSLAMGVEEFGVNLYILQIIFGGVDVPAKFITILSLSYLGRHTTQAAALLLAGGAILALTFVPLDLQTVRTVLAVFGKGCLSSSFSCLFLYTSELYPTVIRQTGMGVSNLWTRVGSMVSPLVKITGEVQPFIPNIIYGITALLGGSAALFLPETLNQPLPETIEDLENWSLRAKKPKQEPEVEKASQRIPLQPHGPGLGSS

human BCRP = biological target: T2, human BCRP (Homo sapiens, UniProt Q9UNQ0); assay: Intracellular accumulation in Saos2-BCRP cells vs Saos2-pcDNA3.1; settings: for Effect of elacridar on intracellular accumulation: Saos2-BCRP cells, pre-incubation 30 minutes with elacridar (4 μM); for Intracellular accumulation vs control cells: Saos2-BCRP vs Saos2-pcDNA3.1, 0.5 μg/mL, 37°C
T2 sequence (Q9UNQ0 1-655): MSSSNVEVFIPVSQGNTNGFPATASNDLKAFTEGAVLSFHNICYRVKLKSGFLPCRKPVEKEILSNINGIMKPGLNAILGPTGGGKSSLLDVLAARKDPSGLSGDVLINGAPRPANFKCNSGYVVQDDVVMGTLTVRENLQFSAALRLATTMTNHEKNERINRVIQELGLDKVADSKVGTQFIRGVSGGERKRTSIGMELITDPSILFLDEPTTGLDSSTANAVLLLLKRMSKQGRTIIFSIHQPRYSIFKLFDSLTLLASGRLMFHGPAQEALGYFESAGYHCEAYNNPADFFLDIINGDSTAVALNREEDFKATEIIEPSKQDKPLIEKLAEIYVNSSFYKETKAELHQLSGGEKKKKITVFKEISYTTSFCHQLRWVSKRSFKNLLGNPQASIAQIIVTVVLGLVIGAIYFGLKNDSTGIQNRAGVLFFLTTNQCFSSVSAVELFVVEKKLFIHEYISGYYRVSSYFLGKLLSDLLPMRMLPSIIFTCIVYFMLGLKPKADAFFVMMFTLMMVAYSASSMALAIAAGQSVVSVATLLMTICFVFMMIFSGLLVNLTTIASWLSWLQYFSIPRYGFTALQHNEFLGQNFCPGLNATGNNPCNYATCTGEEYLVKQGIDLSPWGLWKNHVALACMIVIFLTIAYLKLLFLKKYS

human MRP4 = biological target: T3, human MRP4 (Homo sapiens, UniProt O15439); assay: Intracellular accumulation in Saos2-MRP4 cells vs Saos2-pcDNA3.1; settings: Saos2-MRP4 vs Saos2-pcDNA3.1, 0.5 μg/mL, 37°C
T3 sequence (O15439 1-1325): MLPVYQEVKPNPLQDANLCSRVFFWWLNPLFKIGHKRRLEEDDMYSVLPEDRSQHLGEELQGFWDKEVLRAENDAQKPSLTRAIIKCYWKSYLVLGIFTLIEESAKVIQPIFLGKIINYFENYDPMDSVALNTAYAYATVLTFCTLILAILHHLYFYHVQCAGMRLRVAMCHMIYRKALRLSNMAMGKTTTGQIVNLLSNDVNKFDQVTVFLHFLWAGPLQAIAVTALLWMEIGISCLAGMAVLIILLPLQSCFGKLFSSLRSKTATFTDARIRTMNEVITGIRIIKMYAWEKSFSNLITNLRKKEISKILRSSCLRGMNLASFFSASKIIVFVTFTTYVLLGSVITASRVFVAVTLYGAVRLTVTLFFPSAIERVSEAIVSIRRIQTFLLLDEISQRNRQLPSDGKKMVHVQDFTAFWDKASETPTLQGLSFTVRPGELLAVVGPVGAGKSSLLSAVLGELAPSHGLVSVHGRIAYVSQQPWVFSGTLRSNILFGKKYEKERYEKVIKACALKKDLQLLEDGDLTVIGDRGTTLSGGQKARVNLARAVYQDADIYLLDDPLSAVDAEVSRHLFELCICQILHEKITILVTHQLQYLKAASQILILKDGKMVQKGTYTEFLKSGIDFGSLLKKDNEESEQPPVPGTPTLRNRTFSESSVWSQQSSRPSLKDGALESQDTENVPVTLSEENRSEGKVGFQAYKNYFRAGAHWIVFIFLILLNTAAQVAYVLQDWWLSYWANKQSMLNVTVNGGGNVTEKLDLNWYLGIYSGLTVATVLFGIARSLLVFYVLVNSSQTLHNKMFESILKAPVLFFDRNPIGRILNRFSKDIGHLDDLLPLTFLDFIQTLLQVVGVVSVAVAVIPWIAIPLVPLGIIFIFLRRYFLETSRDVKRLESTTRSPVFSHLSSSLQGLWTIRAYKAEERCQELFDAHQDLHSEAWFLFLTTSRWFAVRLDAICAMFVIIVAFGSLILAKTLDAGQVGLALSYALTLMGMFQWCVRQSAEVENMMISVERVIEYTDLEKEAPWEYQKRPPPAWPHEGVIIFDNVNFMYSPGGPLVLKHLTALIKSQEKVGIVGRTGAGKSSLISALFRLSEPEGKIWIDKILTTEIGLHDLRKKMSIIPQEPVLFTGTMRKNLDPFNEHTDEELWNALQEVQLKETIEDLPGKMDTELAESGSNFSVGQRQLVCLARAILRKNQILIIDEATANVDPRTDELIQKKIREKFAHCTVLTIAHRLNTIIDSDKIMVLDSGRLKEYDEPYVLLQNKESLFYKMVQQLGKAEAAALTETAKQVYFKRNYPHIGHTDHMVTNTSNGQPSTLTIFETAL

SMILES: C#Cc1cccc(Nc2ncnc3cc(OCCOC)c(OCCO)cc23)c1 [OSI-420]
- Differences in unbound fraction between strains (mouse, plasma): No significant differences
- Unbound fraction (fu) (mouse, plasma): 6.6 % ± 0.7%
- Systemic exposure relative to that of erlotinib [1]: 10-20%
- Uptake vs empty vector HEK-293 cells [2]: significantly higher
- Effect of elacridar on intracellular accumulation (human BCRP): significantly increased
- Intracellular accumulation vs control cells (human BCRP): significantly lower; also recorded: significantly reduced
- Intracellular accumulation vs control cells (human MRP4): did not show a significant difference

SMILES: C#Cc1cccc(Nc2ncnc3cc(OCCOC)c(OCCOC)cc23)c1 [erlotinib, Erlotinib]
- Differences in unbound fraction between strains (plasma from each mouse strain, equilibrium dialysis): No significant differences
- Renal clearance component as share of overall elimination [1]: ~ 10%
- Uptake vs empty vector HEK-293 cells [2]: significantly higher
- Uptake vs empty vector HEK-293 cells ([2]; listed as Erlotinib): higher
- Effect of elacridar on intracellular accumulation (human BCRP): significantly increased
- Intracellular accumulation vs control cells (human BCRP): significantly lower; also recorded: significantly reduced
- Intracellular accumulation vs control cells (human MRP4): did not show a significant difference
